From patent publication US12668803B2, “Glypican-3-specific modified aptamer and use thereof” (APTAMER SCIENCES INC., priority 2019, dated 2026)

Columns and labels:
Assay type in all cases: cell-based
[1] = test system: hepatoma cells (Hep3B, HepG2); test: Cell cycle analysis (propidium iodide, FACS); details: 4 hr treatment, FIGS. 25 and 26
Experimental: (§1) To analyze the effects of combi 4 and combi 5 bound with three or five gemcitabines on the cell cycle of hepatoma cells, cell cycle analysis was performed. In detail, Hep3B, HepG2, and A431 cells were seeded in a 6-well plate at a density of 1×10^6/ml, and cultured using a DMEM medium containing 10% FBS and 1% antibiotics (penicillin/streptomycin) under conditions of 5% CO2 and 37° C., respectively. Next day, 100 μM of the modified aptamer stock was mixed with 5×SB18 buffer to prepare the aptamer at a concentration of 80 μM, and heated at 95° C. for 5 min, and then cooled at room temperature for 15 min or more. The medium was removed from the cultured cells, and replaced by a serum-free medium, and cultured under conditions of 37° C. and 5% CO2 for 1 hr. The serum-free medium was removed, and then the cells were washed with 2 ml of 1×PBS. 2 ml of KRPH buffer was added, and cultured under conditions of 37° C. and 5% CO2 for 1 hr. The aptamer was added, and cultured under conditions of 37° C. and 5% CO2 for 4 hr. The KRPH buffer was removed, and 2 ml of 1×PBS was added thereto to perform washing, and then PBS was removed. 2 ml of 1×PBS was added, and cells were scraped using a scraper, and collected in FACs tubes, followed by centrifugation at 4° C. and 2000 rpm for 4 minutes. 1/500-fold diluted RNAase A and propidium iodide diluted with PBS at a concentration of 50 μg/ml were added to the FACs tubes at a volume of 500 μL, followed by pipetting. Incubation was performed at room temperature for 30 min while blocking the light, and then cell cycle was measured.

[2] = test system: squamous cell carcinoma cells (A431); test: Cell cycle analysis (propidium iodide, FACS); details: 4 hr treatment, FIG. 27
Experimental: as §1

Huh 7 cells = test: Cell binding analysis of Cy5-labeled aptamers (FACS); details: three vs five gemcitabines bound, method of Example 2-1, FIG. 19
Experimental: The 12-10 aptamer and 5 aptamer libraries prepared by truncating the 12-10 aptamer at various lengths [12-10 (40-mer), 12-12 (35-mer), 12-11 (29-mer), 12-13 (24-mer), 12-14 (23-mer), 12-15 (18-mer)] were subjected to cell binding analysis. Each aptamer sequence was labeled with Cy5 at the 5′ end thereof according to the method of Example 1-1. Huh 7 cells (ATCC, Rockville, MD, USA) were seeded at a density of 2×10^6/mL in a 100 mm^2 culture plate, and cultured using a DMEM medium (Gibco, Grand Island, NY, USA) containing 10% FBS (Gibco, Grand Island, NY, USA) and 1% antibiotics (penicillin/streptomycin) under conditions of 5% CO2 and 37° C. 5 μM of the aptamer stock was mixed with 5×SB18 buffer to prepare the aptamer at a concentration of 4 μM, and heated at 95° C. for 5 min, and then cooled at room temperature for 15 min or more. 4 μM of the aptamer was diluted with KRPH buffer (20 mM HEPES, 5 mM KH2PO4, 1 mM MgSO4, 1 mM CaCl2, 136 mM NaCl, 4.7 mM KCl, pH 7.4) at a concentration of 25 nM. The culture medium was removed from the cultured cells, and 4 mL of phosphate-buffered saline (PBS) was added thereto, followed by washing, and then 4 mL of PBS was removed. 4 mL of cold PBS or warm PBS was added, and cells were scraped using a scraper, and collected in tubes, followed by pipetting. The cells were divided and added to fluorescence-activated cell sorting (FAC) tubes according to the number of samples, followed by centrifugation at 4° C. and 2000 rpm for 4 min. After removing the supernatant, each 500 μL of 25 nM aptamer and control (31-08 (40-mer) aptamer) were added to […] of KRPH buffer, followed by pipetting. The tube was covered with foil to block the light, followed by incubation at 4° C. for 30 min. After incubation, centrifugation was performed at 4° C. and 2000 rpm for 4 min, and the supernatant was removed. 2 mL of cold 1×PBS was added, washed, centrifuged at 4° C. and 2000 rpm for 4 min, and the supernatant was removed. This process was repeated three times. […] Cy5 was measured at […]. […]

“Combi 5 G(3) (DNA GNGAANGCGNNGAANNANWYSSSNNCAGNCANCAC; gemcitabines, 2'-OMe, 2'-F, BzdU, 3' idT; Combi 5 G(3); (1)..(1) G is 2-O-Methoxy-DNA.; (2)..(2) n is BzdU.; (3)..(3) G is 2-O-Methoxy-DNA.; (4)..(4) A is 2-Fluorine-DNA.; (5)..(5) A is 2-Fluorine-DNA.; (6)..(6) n is BzdU.; (10)..(10) n is BzdU.; (11)..(11) n is BzdU.; (12)..(12) G is 2-Fluorine-DNA.; (13)..(13) A is 2-Fluorine-DNA.; (14)..(14) A is 2-O-Methoxy-DNA.; (15)..(15) n is BzdU.; (16)..(16) n is BzdU.; (17)..(17) A is 2-O-Methox)” was tested, and the cell cycle arrest [1] was “arrested hepatoma cells at the G1/S phase”, the cell cycle arrest [2] was “no cell cycle arrest” and the cell binding ability (Huh 7 cells) was “excellent cell binding ability”.
